Tests used:
Experiment in all cases: relative viability (nuclei count vs DMSO), 5 days (fraction); higher = more cells survive
Motesanib + Lapatinib = compound: CC1(C)CNc2cc(NC(=O)c3cccnc3NCc3ccncc3)ccc21 [Motesanib] + CS(=O)(=O)CCNCc1ccc(-c2ccc3ncnc(Nc4ccc(OCc5cccc(F)c5)c(Cl)c4)c3c2)o1 [Lapatinib] (partner 2 µM)
Method in brief: (§1)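 Lung cancer cell lines were pin-tool dosed in 1536-well plates on the day after seeding, with either a lone drug or a fixed anchor-drug dose plus five library-drug doses (not always all listed) in √10 steps. Nuclei were counted on 4× images after 5 days. Relative viability is the ratio of treated-well to vehicle-well nuclei counts, with each value a median of duplicate plates.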

[1] = compound: C[C@@]1(C(=O)Nc2ccc(F)nc2)CCCN1c1nc(Nc2cc(C3CC3)n[nH]2)c2cccn2n1 + Cc1cc(Nc2cc(N3CCN(C)CC3)nc(Sc3ccc(NC(=O)C4CC4)cc3)n2)n[nH]1 [Tozasertib] (partner 0.1 µM)
Method in brief: as §1

[2] = compound: C[C@@]1(C(=O)Nc2ccc(F)nc2)CCCN1c1nc(Nc2cc(C3CC3)n[nH]2)c2cccn2n1 + O=C(c1cc(Cc2n[nH]c(=O)c3ccccc23)ccc1F)N1CCN(C(=O)C2CC2)CC1 [Olaparib] (partner 8 µM)
Method in brief: as §1

[3] = compound: C[C@@]1(C(=O)Nc2ccc(F)nc2)CCCN1c1nc(Nc2cc(C3CC3)n[nH]2)c2cccn2n1 + Cc1nc(NC(=O)N2CCC[C@H]2C(N)=O)sc1-c1ccnc(C(C)(C)C(F)(F)F)c1 [Alpelisib] (partner 2 µM)
Method in brief: as §1

NCI-H1944 showed a relative viability (Motesanib + Lapatinib; first compound 0.01 µM) of 0.944, a relative viability (Motesanib + Lapatinib; first compound 0.03162 µM) of 0.831 and a relative viability (Motesanib + Lapatinib; first compound 0.1 µM) of 0.842. It also gave a relative viability (Motesanib + Lapatinib; first compound 0.3162 µM) of 0.836, a relative viability (Motesanib + Lapatinib; first compound 1 µM) of 0.859 and a relative viability ([1]; first compound 0.04 µM) of 0.251. It also gave a relative viability ([1]; first compound 0.1265 µM) of 0.239, a relative viability ([1]; first compound 0.4 µM) of 0.203 and a relative viability ([1]; first compound 1.265 µM) of 0.245. For the same cell line, the relative viability ([2]; first compound 0.04 µM) was 0.413, the relative viability ([2]; first compound 0.1265 µM) was 0.394 and the relative viability ([2]; first compound 0.4 µM) was 0.362. For the same cell line, the relative viability ([2]; first compound 1.265 µM) was 0.492, the relative viability ([3]; first compound 0.04 µM) was 0.72 and the relative viability ([3]; first compound 0.1265 µM) was 0.657. It also gave a relative viability ([3]; first compound 0.4 µM) of 0.669 and a relative viability ([3]; first compound 1.265 µM) of 0.834.

With NCI-H1975 the relative viability (Motesanib + Lapatinib; first compound 0.01 µM) was 0.873, the relative viability (Motesanib + Lapatinib; first compound 0.03162 µM) was 0.815 and the relative viability (Motesanib + Lapatinib; first compound 0.1 µM) was 0.89. For the same cell line, the relative viability (Motesanib + Lapatinib; first compound 0.3162 µM) was 0.907, the relative viability (Motesanib + Lapatinib; first compound 1 µM) was 0.993 and the relative viability ([1]; first compound 0.04 µM) was 0.682. It also gave a relative viability ([1]; first compound 0.1265 µM) of 0.646, a relative viability ([1]; first compound 0.4 µM) of 0.513 and a relative viability ([1]; first compound 1.265 µM) of 0.316. For the same cell line, the relative viability ([2]; first compound 0.04 µM) was 0.653, the relative viability ([2]; first compound 0.1265 µM) was 0.749 and the relative viability ([2]; first compound 0.4 µM) was 0.626. It also gave a relative viability ([2]; first compound 1.265 µM) of 0.476, a relative viability ([3]; first compound 0.04 µM) of 0.638 and a relative viability ([3]; first compound 0.1265 µM) of 0.553. It also gave a relative viability ([3]; first compound 0.4 µM) of 0.472 and a relative viability ([3]; first compound 1.265 µM) of 0.482.

NCI-H1993 gave a relative viability (Motesanib + Lapatinib; first compound 0.01 µM) of 0.884, a relative viability (Motesanib + Lapatinib; first compound 0.03162 µM) of 0.893 and a relative viability (Motesanib + Lapatinib; first compound 0.1 µM) of 0.801. For the same cell line, the relative viability (Motesanib + Lapatinib; first compound 0.3162 µM) was 0.867, the relative viability (Motesanib + Lapatinib; first compound 1 µM) was 0.638 and the relative viability ([1]; first compound 0.04 µM) was 0.556. It also gave a relative viability ([1]; first compound 0.1265 µM) of 0.502, a relative viability ([1]; first compound 0.4 µM) of 0.55 and a relative viability ([1]; first compound 1.265 µM) of 0.549. The relative viability ([2]; first compound 0.04 µM) was 0.926, the relative viability ([2]; first compound 0.1265 µM) was 0.88 and the relative viability ([2]; first compound 0.4 µM) was 0.492. It also gave a relative viability ([2]; first compound 1.265 µM) of 0.662, a relative viability ([3]; first compound 0.04 µM) of 0.678 and a relative viability ([3]; first compound 0.4 µM) of 0.649. The relative viability ([3]; first compound 1.265 µM) was 0.745.

NCI-H2009 showed a relative viability (Motesanib + Lapatinib; first compound 0.01 µM) of 1.08, a relative viability (Motesanib + Lapatinib; first compound 0.03162 µM) of 0.927 and a relative viability (Motesanib + Lapatinib; first compound 0.1 µM) of 0.962. It also gave a relative viability (Motesanib + Lapatinib; first compound 0.3162 µM) of 1.36, a relative viability (Motesanib + Lapatinib; first compound 1 µM) of 0.898 and a relative viability ([1]; first compound 0.04 µM) of 0.779. It also gave a relative viability ([1]; first compound 0.1265 µM) of 0.693, a relative viability ([1]; first compound 0.4 µM) of 0.598 and a relative viability ([1]; first compound 1.265 µM) of 0.519. For the same cell line, the relative viability ([2]; first compound 0.04 µM) was 0.718, the relative viability ([2]; first compound 0.1265 µM) was 0.657 and the relative viability ([2]; first compound 0.4 µM) was 0.726. For the same cell line, the relative viability ([2]; first compound 1.265 µM) was 0.663, the relative viability ([3]; first compound 0.04 µM) was 1.17 and the relative viability ([3]; first compound 0.1265 µM) was 1.24. The relative viability ([3]; first compound 0.4 µM) was 1.12 and the relative viability ([3]; first compound 1.265 µM) was 1.22.

For NCI-H2023, the relative viability (Motesanib + Lapatinib; first compound 0.01 µM) was 0.939, the relative viability (Motesanib + Lapatinib; first compound 0.03162 µM) was 0.778 and the relative viability (Motesanib + Lapatinib; first compound 0.1 µM) was 0.54. It also gave a relative viability (Motesanib + Lapatinib; first compound 0.3162 µM) of 0.988, a relative viability (Motesanib + Lapatinib; first compound 1 µM) of 0.897 and a relative viability ([1]; first compound 0.04 µM) of 0.337. For the same cell line, the relative viability ([1]; first compound 0.1265 µM) was 0.31, the relative viability ([1]; first compound 0.4 µM) was 0.174 and the relative viability ([1]; first compound 1.265 µM) was 0.118. For the same cell line, the relative viability ([2]; first compound 0.04 µM) was 0.456, the relative viability ([2]; first compound 0.1265 µM) was 0.422 and the relative viability ([2]; first compound 0.4 µM) was 0.333. The relative viability ([2]; first compound 1.265 µM) was 0.122, the relative viability ([3]; first compound 0.04 µM) was 0.407 and the relative viability ([3]; first compound 0.1265 µM) was 0.374. For the same cell line, the relative viability ([3]; first compound 0.4 µM) was 0.376 and the relative viability ([3]; first compound 1.265 µM) was 0.407.

Cell Line NCI-H2085 has a relative viability (Motesanib + Lapatinib; first compound 0.01 µM) of 0.77, a relative viability (Motesanib + Lapatinib; first compound 0.03162 µM) of 0.779 and a relative viability (Motesanib + Lapatinib; first compound 0.1 µM) of 0.798. It also gave a relative viability (Motesanib + Lapatinib; first compound 0.3162 µM) of 0.772, a relative viability (Motesanib + Lapatinib; first compound 1 µM) of 0.779 and a relative viability ([1]; first compound 0.04 µM) of 0.892. For the same cell line, the relative viability ([1]; first compound 0.1265 µM) was 0.795, the relative viability ([1]; first compound 0.4 µM) was 0.664 and the relative viability ([1]; first compound 1.265 µM) was 0.92. The relative viability ([2]; first compound 0.04 µM) was 0.827, the relative viability ([2]; first compound 0.1265 µM) was 0.748 and the relative viability ([2]; first compound 0.4 µM) was 0.711. For the same cell line, the relative viability ([2]; first compound 1.265 µM) was 0.819, the relative viability ([3]; first compound 0.04 µM) was 0.936 and the relative viability ([3]; first compound 0.1265 µM) was 0.927. It also gave a relative viability ([3]; first compound 0.4 µM) of 0.883 and a relative viability ([3]; first compound 1.265 µM) of 0.851.

Work on NCI-H2087 yielded a relative viability (Motesanib + Lapatinib; first compound 0.01 µM) of 1.23, a relative viability (Motesanib + Lapatinib; first compound 0.03162 µM) of 0.923 and a relative viability (Motesanib + Lapatinib; first compound 0.1 µM) of 1.23. It also gave a relative viability (Motesanib + Lapatinib; first compound 0.3162 µM) of 1.38, a relative viability (Motesanib + Lapatinib; first compound 1 µM) of 1.1 and a relative viability ([1]; first compound 0.04 µM) of 0.231. The relative viability ([1]; first compound 0.1265 µM) was 0.28, the relative viability ([1]; first compound 0.4 µM) was 0.159 and the relative viability ([1]; first compound 1.265 µM) was 0.209. For the same cell line, the relative viability ([2]; first compound 0.04 µM) was 0.593, the relative viability ([2]; first compound 0.1265 µM) was 0.483 and the relative viability ([2]; first compound 0.4 µM) was 0.369. For the same cell line, the relative viability ([2]; first compound 1.265 µM) was 0.482, the relative viability ([3]; first compound 0.04 µM) was 1.09 and the relative viability ([3]; first compound 0.1265 µM) was 1.07. It also gave a relative viability ([3]; first compound 0.4 µM) of 0.928 and a relative viability ([3]; first compound 1.265 µM) of 0.851.

NCI-H2126 gave a relative viability (Motesanib + Lapatinib; first compound 0.01 µM) of 0.811, a relative viability (Motesanib + Lapatinib; first compound 0.03162 µM) of 0.768 and a relative viability (Motesanib + Lapatinib; first compound 0.1 µM) of 0.718. For the same cell line, the relative viability (Motesanib + Lapatinib; first compound 0.3162 µM) was 0.789, the relative viability (Motesanib + Lapatinib; first compound 1 µM) was 0.728 and the relative viability ([1]; first compound 0.04 µM) was 0.677. The relative viability ([1]; first compound 0.1265 µM) was 0.366, the relative viability ([1]; first compound 0.4 µM) was 0.441 and the relative viability ([1]; first compound 1.265 µM) was 0.337. It also gave a relative viability ([2]; first compound 0.04 µM) of 0.67, a relative viability ([2]; first compound 0.1265 µM) of 0.643 and a relative viability ([2]; first compound 0.4 µM) of 0.575. The relative viability ([2]; first compound 1.265 µM) was 0.76, the relative viability ([3]; first compound 0.04 µM) was 0.637 and the relative viability ([3]; first compound 0.1265 µM) was 0.561. For the same cell line, the relative viability ([3]; first compound 0.4 µM) was 0.531 and the relative viability ([3]; first compound 1.265 µM) was 0.657.

In the case of NCI-H2170, the relative viability (Motesanib + Lapatinib; first compound 0.01 µM) is reported as 0.243, the relative viability (Motesanib + Lapatinib; first compound 0.03162 µM) is reported as 0.282 and the relative viability (Motesanib + Lapatinib; first compound 0.1 µM) is reported as 0.228. It also gave a relative viability (Motesanib + Lapatinib; first compound 0.3162 µM) of 0.262, a relative viability (Motesanib + Lapatinib; first compound 1 µM) of 0.293 and a relative viability ([1]; first compound 0.04 µM) of 0.671. It also gave a relative viability ([1]; first compound 0.1265 µM) of 0.791, a relative viability ([1]; first compound 0.4 µM) of 0.636 and a relative viability ([1]; first compound 1.265 µM) of 0.559. The relative viability ([2]; first compound 0.04 µM) was 0.568, the relative viability ([2]; first compound 0.1265 µM) was 0.556 and the relative viability ([2]; first compound 0.4 µM) was 0.488. It also gave a relative viability ([2]; first compound 1.265 µM) of 0.601, a relative viability ([3]; first compound 0.04 µM) of 0.728 and a relative viability ([3]; first compound 0.1265 µM) of 0.658. For the same cell line, the relative viability ([3]; first compound 0.4 µM) was 0.606 and the relative viability ([3]; first compound 1.265 µM) was 0.728.

From the supplement of paper PMC10307832
